These results are taken from paper PMC8717366, “Synthesis and Pharmacological Characterization of Visabron, a Backbone Cyclic Peptide Dual Antagonist of α4β1 (VLA-4)/α9β1 Integrin for Therapy of Multiple Sclerosis” (JACS Au, 2021).

Where two headings read alike, the source gives them in different places. Numbered stars: 1 amine (or outer) side, 2 acyl side, 3 side chain; on linkers, the order of the positions; unused ones are H or OH. Bridge positions count the residues as written; N and C are the ends. Square brackets hold non-standard residues; d marks the D form. Peptide text beside a SMILES is read from it. N(2-Aminoethyl)Gly = O=C(CN(CCN[*:3])[*:1])[*:2]; CO = O=C([*:1])[*:2]; Nlys = NCCCCNCC(=O)O

The subject of data set [1] is U937 macrophages-VCAM-1 (α4β1, αMβ2, α3β1, α6β1). As to the kind of experiment: Adhesion of U937 macrophages to immobilized VCAM-1. The class given is cell-based, human. On the procedure: Cell adhesion assay was carried out as previously described[47] with minor modifications. The day before the experiment, each well was coated with VCAM-1 (3 mg/mL) immobilized on the 96-well plate in PBS by overnight incubation at 4 °C. Thereafter, nonspecific binding was blocked by incubating the wells with 1% (w/v) bovine serum albumin (BSA) in Hank’s Balanced Salt Solution (HBSS) containing 5 mM MgCl2 at room temperature for 1 h before use. The cells were labeled by incubation with 12.5 μM 5-chloromethylfluorescein diacetate (CMFDA) in HBSS without 1% BSA at 37 °C for 30 min. The labeled cells were then centrifuged at 1000 rpm and washed twice with HBSS containing 1% BSA to remove excess CMFDA. Labeled cells (about 1 × 10^5 cells/well) were plated on each well in the presence or absence of visabrons and incubated at 37 °C for 60 min. Unbound cells were removed by washing the wells three times with 1% (w/v) BSA in HBSS, and bound cells were lysed by the addition of 0.5% Triton X-100 (diluted in DDW). The fluorescence in each well was quantified with a SPECTRAFluor Plus plate reader (Tecan), at λex = 485 nm and λem = 530 nm. To determine the number of adhered cells from the fluorescence values, a standard curve was generated by serial dilution of known numbers of CMFDA-labeled cells.

The nature of data set [2]: Single-dose toxicity: blood cell counting and biochemistry analyses. The class given is in vivo, C57BL/6 male mice.
The test system of data set [3] is cyclooxygenase (COX) enzymes. The experiment in a line: SafetyScreen44 enzyme inhibition, cyclooxygenases. Type of data set: biochemical. As to conditions: 1 mM; Figure 6. How it is done: Screening of potentially significant off-target effects to binding and enzyme targets was performed via SafetyScreen44 offered by Eurofins Cerep-Panlabs. Visabron c (4–4) was tested at 1 and 0.1 mM. Compound binding was calculated as the percentage of inhibition of the binding of a radioactively labeled ligand specific for each target. The compound enzyme inhibitory effect was calculated as the percentage of inhibition of control enzyme activity. Results showing inhibition higher than 40% were considered to represent significant effects of the tested compound. Results showing inhibition lower than 25% as obtained with 0.1 mM Visabron c (4–4) were not considered significant and were mostly attributable to the variability of the signal around the control level. In each experiment, the respective reference compound was tested concurrently with visabron c (4–4), and the data were compared with historical values determined at Eurofins. The experiment was statistically accepted in accordance with the Eurofins validation standard operating procedure.

Data set [4] in a line: Immunogenicity, antibody titer by ELISA in BALB/c mice. As to conditions: 40 days, Figure 8. Type of data set: in vivo, BALB/c male mice. On the procedure:
Figure 8 Antibody titer test in BALB/c mice, 40 days post intraperitoneal administration with natalizumab (18 mg/kg), visabron c (2–2) (150 mg/kg) alone, and administered together with Complete Freund’s Adjuvant (visabron c (2–2) + CFA), as compared to preimmune control serum. The results represent the mean ± SEM (n = 6) of optical absorbance (OD 490 nm) in ELISA. *p ≤ 0.01 compared to control.
BALB/c male mice, aged 60 days (22 gr) were divided into three groups each containing six mice. The mice were immunized intraperitoneal with 0.5 mL of Visabron c (2–2) (150 mg/kg), 0.25 mL Visabron c (2–2) (150 mg/kg) + 0.25 mL of Freund‘s complete adjuvant, and 0.25 mL natalizumab (18 mg/kg). After 14 days of the first inoculation, the mice received a booster with 0.5 mL of the preparations mentioned above. To verify the presence of antibodies against visabron c (2–2) or natalizumab, the serum collected from mice tail blood was tested 40 days after the first inoculation by indirect ELISA using visabron c (2–2) or natalizumab antigens immobilized to the plate (25 μg per well, diluted in 20 mM carbonate buffer, pH 9.6 overnight incubated at 4 °C). […] The reaction was stopped with 12.5% H2SO4, and absorbance was measured at 490 nm. The results were considered significant when the absorbance was at least two times higher than that obtained with the preimmune serum.

Data set [5] has as its system experimental autoimmune encephalomyelitis (EAE). The experiment in a line: MOG-induced EAE in C57BL/6 mice. Type of data set: in vivo, C57Bl/6 female mice.
Procedure: EAE was induced in C57bl/6 mice by immunization with MOG/CFA and injection of pertussis toxin as described in the Experimental Section. The body weight, neurological scores, and disease incidence were monitored daily for 35 days. Immunized mice (n = 10–14 in each group) were treated (i.p. injection) at time points indicated by arrows. Histology was performed on day 35 on all groups. Data shown are the mean ± SEM, evaluated by the nonparametric Kruskal–Wallis test followed by a Dunn’s postanalysis. All p-values <0.05 were considered statistically significant. (A) Neurological clinical score. Visabron c (4–4) (green) at a cumulative dose of 25 mg/kg (5 mg/kg every other day, for 8 days) and natalizumab (orange) at a cumulative dose of 120 mg/kg (24 mg/kg every other day, for 8 days). […] (E) Dose–response of treatment with visabron c (4–4). Inset: Mean neurological score of the different treatment groups at disease onset (days 15–17). […] (F) Inflammatory infiltrates (blue) in the spinal cord were evaluated by cell counting in H&E stained slices.
C57Bl/6 female mice, 8 weeks old, obtained from the Harlan animal breeding center were used in the study and were maintained in the SPF unit of the Faculty of Medicine. EAE was induced by s.c. injection of 0.2 mL/mouse emulsion containing 200 μg of MOG35–55 peptide in saline and an equal volume of 5 mg/mL Complete Freund’s Adjuvant (CFA) containing 1 mg/mL heat-killed M. tuberculosis (H37Ra; Difco Laboratories, Detroit, MI) . The emulsification was made from equal parts of oil and liquid portions (1:1) in two syringes connected to each other with Leur lock, transferred to an insulin syringe, and 0.2 mL was injected to the right flank of each mouse. On the day of immunization, pertussis toxin (200 ng/mL) was injected i.p. at a volume dose of 0.2 mL/mouse. The injection of the pertussis toxin (i.p) was repeated after 48 h to boost the immune recognition reaction. From day four, natalizumab and Visabron c (4–4) were injected i.p. each other day, five times, and the weight, the neurological score and the disease incidence of the mice were monitored until 35 days after immunization. EAE scoring system: mice were observed daily for the appearance of neurological symptoms, which were scored as follows: 0, asymptomatic; 1, partial loss of tail tonicity; 1.5, limp tail; 2, hind limb weakness (right reflex); 3, ataxia; 4, early paralysis; 5, full paralysis; and 6, moribund or dead. The disease incidence was calculated as a percentage of the ratio of the number of new diseased mice per number of living mice at each time-point. In experiments to estimate cell infiltration in the spinal cord at 35 days postimmunization, the mice were euthanized by cervical dislocation and lumbar spinal cords were collected.
The conditions of data set [6]: human, in vivo; cited from earlier work.
The mark [7] stands for this setting: U937 treated with PMA (10 ng/mL) for 24 h, read-out: IC50 U937 macrophages-VCAM-1 PMA.
[8] abbreviates: untreated U937, read-out: IC50 U937 macrophages-VCAM-1 control.
[9] abbreviates: blood 24 hours after i.v. 500 mg/kg, n=5.

Broadly, the IC50 is the midpoint of a concentration-inhibition curve.

For `CSCC[C@@H]1NC(=O)[C@H]([C@@H](C)O)NC(=O)CN(C(=O)[C@@H](N)CCCCN)CCCCNC(=O)NCCCCN(CC(=O)N[C@@H](CC(C)C)C(N)=O)C(=O)[C@H](CC(=O)O)NC(=O)[C@H](CC(C)C)NC1=O` [visabron c (4–4)] (H-K[Nlys]TMLD[Nlys]L-NH2; linker 2-7 via CO), the IC50 in data set [1] (setting [7]) was 10 µM. Besides, the IC50 in data set [1] (setting [8]) worked out at 11 µM. The “Acute tolerability, single dose” value in data set [2] (24 h after i.v. injection, C57BL/6 male mice) was 500 mg/kg. Also, the “Blood count and electrolytes vs control mice” value in data set [2] (24 hours from i.v. injection, dose printed 250 mg/kg in this block) is “No significant differences”. Further, in data set [2] (setting [9]), the ALP came to 84±7 U/L, the ALT is reported as 41±4 U/L, the AST turned out to be 92±11 U/L and the Albumin is 2.8±0.2 gr/dL. In data set [2] (setting [9]), the BUN is 14 ± 3.2 mg/dL, the Calcium was found to be 9.8 ± 1.2 mg/dL, the Chloride was 105 ± 9.2 mmol/L and the Cholesterol turned out to be 105 ± 8.6 mg/dL. In data set [2] (setting [9]), this compound returned a Creatinine of 0.3 ± 0.07 mg/dL, a Glucose of 279 ± 31 mg/dL, an HCT of 45±2.5% and an HGB of 14.8 ± 0.5 g/dL. In data set [2] (setting [9]), this compound displayed an MCH of 14.8 ± 0.6 pg, an MCHC of 29 ± 1.3 g/dL, an MCV of 48 ± 2.5 fL and an MPV of 5 ± 0.9 fL. In data set [2] (setting [9]), this compound displayed an RBC of 9.0±0.9 m/ µL, an RDW of 17.1±0.4% and a WBC of 7.9±0.8 k/µL. In data set [3], the “Inhibition of cyclooxygenase (COX) enzymes” value is reported as “moderately inhibited”.
For `CSCC[C@@H]1NC(=O)[C@H]([C@@H](C)O)NC(=O)CN(C(=O)[C@@H](N)CCCCN)CCNC(=O)NCCN(CC(=O)N[C@@H](CC(C)C)C(N)=O)C(=O)[C@H](CC(=O)O)NC(=O)[C@H](CC(C)C)NC1=O` [visabron c (2–2)] (H-K[N(2-Aminoethyl)Gly]TMLD[N(2-Aminoethyl)Gly]L-NH2; linker 2-7 via CO), the IC50 in data set [1] (setting [7]) stood at 16 µM; in data set [1] (setting [8]), 53 µM. In addition, the “Antibody production (ELISA vs preimmune serum)” value in data set [4] (150 mg/kg intraperitoneal alone) and in data set [4] (150 mg/kg intraperitoneal together with Freund's complete adjuvant) was “did not induce antibody production” in each case.
For “natalizumab: clinical-grade monoclonal antibody anti-α4β1 produced by Biogen Co. [reference compound]”, the “EAE-associated body weight decrease” value in data set [5] (13–16 to 35 days postimmunization, visabron c (4–4) cumulative 25 mg/kg, natalizumab 120 mg/kg i.p., Figure 3B) is “significantly decreased”. The “Disease incidence vs EAE disease group” value in data set [5] (Figure 3C) was “lower disease incidence”. Further, the “Cumulative neurological scores vs EAE/PBS group” value in data set [5] (at 35 days postimmunization, Figure 3D) is reported as “significantly decreased”. Moreover, in data set [5] (day 35, Figure 3F), the “Inflammatory cell infiltration in spinal cord (H&E cell counting)” value is on record as “significantly reduced”. Also, the “Increase in neurological score vs EAE group” value in data set [5] (onset (13–16 days) to 35 days postimmunization, i.p., visabron c (4–4) cumulative 25 mg/kg, natalizumab cumulative 120 mg/kg, Figure 3A) is “significantly lower”. In data set [6], the “Multiple sclerosis patients with anti-natalizumab-neutralizing antibodies” value is listed as 6–9% and the “Patients with neutralizing antibodies toward natalizumab that cause loss of drug efficacy” value is on record as “about 6%”.
